Patent US20220119794A1, “CHEMICALLY PROGRAMMED NEUTROPHILS AND USES THEREOF” (VIRGINIA POLYTECHNIC INSTITUTE AND STATE UNIVERSITY, priority 2018, published 2022)

What was measured:
[1] = tested on: oxCaMKII and 5-LOX in BM neutrophils; assay: Immunoblotting of oxCaMKII and 5-LOX in neutrophils; assay type: cell-based, C57 BL/6 mice; conditions: LPS 100 pg/ml, vs PBS
Method: Immunoblotting. Purified BM neutrophils were cultured in complete RPMI medium with G-CSF (100 ng/ml) in the presence of PBS, subclinical dose LPS (100 pg/ml), oxLDL (10 μg/ml) or 4-PBA (1 mM), and total cell lysate was extracted on day 2. Protein samples were separated with SDS-PAGE and transferred to PVDF membranes, which were probed with anti-oxCaMKII (Millipore, #07-1387, 1:500 dilution), anti-5 LOX (Cell Signaling, #3289S, 1:500 dilution), and anti-β-actin (Santa Cruz, #sc-47778, 1:1000 dilution) primary antibodies followed by horseradish peroxidase-conjugated anti-rabbit IgG (Cell Signaling, #7074S, 1:1000 dilution) or anti-mouse IgG (Cell Signaling, #7076S, 1:1000 dilution) secondary antibodies. Images were developed by a chemiluminescence ECL detection kit (ThermoFisher).

[2] = tested on: Bone marrow (BM) neutrophils; assay: In vitro neutrophil priming, surface phenotype by FACS; assay type: cell-based, C57 BL/6 mice; conditions: LPS 100 pg/ml with G-CSF, vs G-CSF alone
Method: (§1) In vitro neutrophil priming and FACS analysis. Bone marrow (BM) neutrophils were isolated from C57 BL/6 mice and cultured in complete RPMI medium containing 10% fetal bovine serum, 2 mM L-glutamine, 1% penicillin/streptomycin in the presence of G-CSF (100 ng/ml). PBS, subclinical dose LPS (100 pg/ml), oxLDL (10 μg/ml) or 4-PBA (1 mM) was added to cell cultures. After 2 days, the cells were harvested and stained with anti-Ly6G (BioLegend, #127606, 127610 or 127618, 1:200 dilution), anti-CD11b (BioLegend, #101206, 1:200 dilution), anti-CD62L (BioLegend, #104407, 1:200 dilution), anti-Dectin1 (BioLegend, #144305, 1:200 dilution), anti-LLRC32 (BioLegend, #142904, 1:200 dilution) and anti-FPN (Novus, #NBP1-21502, 1:200 dilution) antibodies. In some experiments, the cells were fixed and permeabilized using transcription factor phospho buffer set (BD Biosciences), and then stained with primary anti-p-STAT1 (Cell Signaling, #8009S, 1:50 dilution), anti-ATF4 (Proteintech, #10835-1-AP, 1:50 dilution), and anti-KLF2 (Novus, #NBP2-61812, 1:100 dilution) antibodies followed by staining with Alexa Fluor 488 conjugated goat anti-rabbit IgG (Abcam, #ab150077, 1:2000 dilution). Surface phenotype and transcription factor phosphorylation of Ly6G+ neutrophils were analyzed by FACSCanto II (BD Biosciences). For intracellular ROS detection, 5 μM CellROX Green Reagent (ThermoFisher) was added to neutrophil cultures 30 min before harvesting, and cells were analyzed by FACSCanto II (BD Biosciences). The data were processed by Flow Jo (Tree Star).

BM neutrophils [3] = assay: ELISA of MMP9, LTB4, MPO in neutrophil culture supernatant; assay type: cell-based, C57 BL/6 mice; conditions: LPS 100 pg/ml with G-CSF, vs G-CSF alone
Method: (§2) ELISA and determination of plasma lipids. For in vivo analyses, plasma was collected from the mice at time of sacrificing. For in vitro analyses, purified BM neutrophils were cultured in complete RPMI medium with G-CSF (100 ng/ml) in the presence of PBS, subclinical dose LPS (100 pg/ml), oxLDL (10 μg/ml) or 4-PBA (1 mM), and supernatant was collected after 2 d. ELISA kit of MPO was purchased from ThermoFisher, and ELISA kits of MMP9, LTB4 and TGF-β1 were purchased from R&D Systems. Cholesterol quantitation kit was purchased from Sigma-Aldrich, and triglyceride quantification kit was purchased from BioVision.

BM neutrophils [4] = assay: Surface phenotype of neutrophils before transfer, polarization for 24 h; assay type: cell-based, mice; conditions: polarized for 24 hours, vs PBS
Method: Bone marrow neutrophils were purified and treated with PBS, super-low-dose LPS (100 pg/ml) or 4-PBA (1 mM) for 24 h (FIGS. 16A-16B) and 48 h (FIGS. 16C-16D). The cells were stained with Annexin-V and PI, and the viability (percentage of Annexin-V-/PI-population) was determined by flow cytometry. (FIG. 16E) Surface phenotype of neutrophils was analyzed by flow cytometry after polarization for 24 h. Data are representative of three independent experiments, and error bars represent means±S.E.M. *P<0.05, **P<0.01 and ***P<0.001 as compared with PBS group; one-way ANOVA. (n=5 for each group).
Adoptive transfer of in vitro neutrophils. Bone marrow (BM) cells were isolated from ApoE−/− mice and BM neutrophils (Ly6G+ population) were purified by FACS sorting with >99.5% purity. The cells were cultured in complete RPMI with G-CSF (100 ng/ml) in the presence of subclinical dose LPS (100 pg/ml) or 4-PBA (1 mM) for 24 h. Cells were washed three times with PBS and suspended in PBS for injection. HFD-fed ApoE−/− mice were transfused with 2×10^6 neutrophils in 200 μl PBS once weekly through intravenous injection for 4 weeks. One week after the last cell transfer, mice were sacrificed and tissues were harvested for subsequent analyses.

[5] = tested on: p-STAT1, ATF4, KLF2 in BM neutrophils; assay: p-STAT1, ATF4 and KLF2 levels in neutrophils by flow cytometry; assay type: cell-based, C57 BL/6 mice; conditions: LPS 100 pg/ml, vs PBS
Method: as §1

BM neutrophils [6] = assay: Intracellular ROS detection with CellROX; assay type: cell-based, C57 BL/6 mice; conditions: LPS 100 pg/ml, vs PBS
Method: as §1, with “In some experiments, the cells were fixed and permeabilized using transcription factor phospho buffer set (BD Biosciences), and then stained with primary anti-p-STAT1 (Cell Signaling, #8009S, 1:50 dilution), anti-ATF4 (Proteintech, #10835-1-AP, 1:50 dilution), and anti-KLF2 (Novus, #NBP2-61812, 1:100 dilution) antibodies followed by staining with Alexa Fluor 488 conjugated goat anti-rabbit IgG (Abcam, #ab150077, 1:2000 dilution).” left out, “The data were processed by Flow Jo (Tree Star).” left out

mice = mice repeatedly injected with 1.5 mg/kg LPS; cited from earlier work
Ly6G+ neutrophils = assay: Analyses of neutrophil phenotype in vivo by flow cytometry; parameters: species or system mice
Method: (§3) Experimental animals and LPS injection. Male ApoE−/− mice (6 to 8-week old) on the C57 BL/6 background were purchased from the Jackson Laboratory and fed with regular diet or High Fat Diet. Either PBS or subclinical dose LPS (5 ng per kg body weight) was intraperitoneally injected every 3 days for 1 month. Then, the mice were sacrificed and tissues were harvested for further analyses. All animal procedures were in accordance with the US National Institutes of Health Guide for the Care and Use of Laboratory Animals and approved by the Intuitional Animal Care and Use Committee of Virginia Tech.
Analyses of neutrophil phenotype in vivo. Peripheral blood cells, bone marrow (BM) cells and splenocytes were harvested from the mice treated as described above. Cells were stained with anti-Ly6G (BioLegend, #127618, 1:200 dilution), anti-CD11b (BioLegend, #101206, 1:200 dilution), anti-CD62L (BioLegend, #104407, 1:200 dilution), anti-Dectin1 (BioLegend, #144305, 1:200 dilution), anti-LLRC32 (BioLegend, #142904, 1:200 dilution) and anti-FPN (Novus, #NBP1-21502, 1:200 dilution) antibodies. The surface phenotype of Ly6G+ neutrophils was analyzed by FACSCanto II (BD Biosciences). The data were processed by Flow Jo (Tree Star).

BM neutrophils [7] = assay: Real-time RT-PCR of miR-24 and miR-126 in neutrophil cultures; assay type: cell-based, C57 BL/6 mice; conditions: LPS 100 pg/ml, 2 d, vs PBS
Method: Real-Time RT-PCR for detecting of miRNAs. For in vivo analyses, plasma was collected from the mice at time of sacrificing. Circulating miRNAs were isolated with miRNeasy Serum/Plasma kit (Qiagen). For in vitro analyses, purified BM neutrophils were cultured in complete RPMI medium with G-CSF (100 ng/ml) in the presence of PBS, subclinical dose LPS (100 pg/ml), or 4-PBA (1 mM), and miRNAs were isolated with miRNeasy mini kit (Qiagen) after 2 d. TaqMan miRNA Assay kits for detection of U6, miR-16, miR-24, and miR-126 were purchased from ThermoFisher. Real-time RT-PCR was performed following the manual. U6 expression was used as the internal control for miRNA expressions in neutrophil cultures, and miR-16 expression was used as the internal control for plasma miRNA expressions.

BM neutrophils [8] = assay: Lysosome-peroxisome fusion by confocal microscopy; assay type: cell-based, C57 BL/6 mice; conditions: LPS 100 pg/ml, 2 d, vs PBS
Method: Confocal Microscopy. Purified BM neutrophils were cultured in complete RPMI medium with G-CSF (100 ng/ml) in the presence of PBS, subclinical dose LPS (100 pg/ml), or 4-PBA (1 mM) for 2 d. To determine lysosome-peroxisome fusion, the cells were fixed with 4% PFA, deposited on slides through cytospin, and permeabilized with 0.2% Trinton X-100. The cells were blocked and stained with primary rabbit anti-mouse PMP70 antibody (1:1000) supplied in SelectFX® Alexa Fluor® 488 Peroxisome Labeling Kit (ThermoFisher, #S34201), followed by staining with Alexa Fluor 488-goat anti-rabbit secondary antibody (1:1000) supplied in the kit. After extensive washing with PBS, the cells were then stained with Cy3-anti-LAMP1 antibody (Abcam, #Ab67283, 1:1000) and observed under a confocal microscope.

ApoE−/− mice = assay: Subclinical low dose LPS injection in ApoE−/− mice: atherosclerotic lesions, circulating mediators; assay type: in vivo; conditions: for lesional oxCAMKII levels: low dose LPS vs PBS
Method: as §3
Analyses of atherosclerotic lesions. Histological analyses were performed on fresh-frozen and optimal cutting temperature (OCT) compound-embedded proximal aortic sections ([…]). Slides were fixed in 4% neutral buffered formalin for 5 min, followed by H&E or Oil Red O staining. Collagen staining was performed using the Picrosirius Red Stain Kit (Poly-Sciences) according to the manufacturer's instructions. The samples were observed under a light microscope. The percentages of total lesion area, lipid deposition, and collagen composition were calculated. For immunofluorescence staining, proximal aortic sections were fixed with 4% neutral buffered formalin for 5 min, permeabilized with 0.1% saponins, and blocked with 10% normal goat serum (Jackson ImmunoResearch) for 1 hour. To detect lesional neutrophils, the samples were stained with Alexa Fluor 647-conjugated anti-Ly6G antibody (1:50 dilution; BioLegend, no. 127610). To detect lesional macrophages, the samples were costained with eFluor 660-conjugated anti-CD68 (1:100 dilution; Thermo Fisher Scientific, no. 50-0681-82) and rabbit anti-SR-A (1:100 dilution; Thermo Fisher Scientific, no. PA5-22956) antibodies, followed by staining with DyLight 488-conjugated goat anti-rabbit immunoglobulin G (IgG) (1:100 dilution; Thermo Fisher Scientific, no. 35552) in the dark at room tem-perature for 1 hour. To detect oxCAMKII levels, the samples were stained with rabbit anti-oxCaMKII antibody (1:100 dilution; Millipore, no. 07-1387) at 4° C. overnight and then with DyLight 488-conjugated goat anti-rabbit IgG (1:100 dilution; Thermo Fisher Scientific, no. 35552) in the dark at room temperature for 1 hour. 4′,6-Diamidino-2-phenylindole was used to stain nucleus. The samples were observed under a confocal microscope.
as §2

[9] = LPS-injected vs PBS-injected mice
[10] = LPS-injected vs PBS-injected mice, blood, spleen, bone marrow
[11] = HFD-fed ApoE−/− mice, LPS 5 ng/kg body weight for 4 weeks, vs PBS

lipopolysaccharide [LPS]
5-LOX level [1]: increased levels
oxCAMKII level [1]: increased levels
surface CD11b [2]: Significantly elevated levels
surface CD62L [2]: significantly reduced levels
surface Dectin-1 [2]: Significantly elevated levels
surface FPN [2]: significantly reduced levels
surface LRRC32 [2]: significantly reduced levels
LTB4 in supernatant (BM neutrophils [3]): Significantly higher levels
MMP9 in supernatant (BM neutrophils [3]): Significantly higher levels
MPO in supernatant (BM neutrophils [3]): Significantly higher levels
CD11b expression (BM neutrophils [4]): elevated expressions
CD62L expression (BM neutrophils [4]): reduced expressions
Dectin-1 expression (BM neutrophils [4]): elevated expressions
FPN expression (BM neutrophils [4]): reduced expressions
LRRC32 expression (BM neutrophils [4]): reduced expressions
cellular level of ATF4 [5]: significantly reduced
cellular level of KLF2 [5]: significantly reduced
p-STAT1 level [5]: significantly elevated levels
intracellular ROS level (BM neutrophils [6]): significantly higher levels
necrotic cores (mice): enlarged
numbers of circulating neutrophils (mice): elevated numbers
plaque collagen content (mice): reduced
neutrophil surface level of FPN (Ly6G+ neutrophils; [9]): significantly reduced
neutrophil surface level of LRRC32 (Ly6G+ neutrophils; [9]): significantly reduced
neutrophil surface CD11b (Ly6G+ neutrophils; [10]): significantly elevated
neutrophil surface Dectin1 (Ly6G+ neutrophils; [10]): significantly elevated
neutrophil surface-attached CD62L (Ly6G+ neutrophils; [10]): significant reduction
percentages of neutrophils in blood, spleens and atherosclerotic plaques (Ly6G+ neutrophils; mice chronically injected with LPS vs PBS): higher percentages
miR-24 expression (BM neutrophils [7]): induced
miR-126 expression (BM neutrophils [7]): potently suppressed
fusion between peroxisome and lysosome (BM neutrophils [8]): disruption of proper fusion
atherosclerotic plaque size (ApoE−/− mice; [11]): significantly larger
circulating MPO (ApoE−/− mice; [11]): remarkable elevation
circulating levels of TGFβ (ApoE−/− mice; [11]): significantly reduced
collagen content within the plaque (ApoE−/− mice; [11]): significantly reduced
plasma LTB4 level (ApoE−/− mice; [11]): significant elevation
plasma MMP9 level (ApoE−/− mice; [11]): significant elevation
lesional oxCAMKII levels (ApoE−/− mice; HFD-fed ApoE−/− mice): significantly elevated
lesional oxCAMKII levels (ApoE−/− mice; RD-fed ApoE−/− mice): significantly elevated
